Experimental data published in patent EP4653437A2 (Innovo Therapeutics Inc., priority 2023, dated 2024).
pIC50: −log10 of the molar value.

Columns and labels:
A549 cells = test: Measurement of PGE2-increasing activity in A549 cells (IL-1β stimulated, PGE2 quantified in supernatant); format: cell-based; conditions: Homo sapiens, 24 h; concentration of 1 µM of each compound; IL-1β treated A549 cells; read-out: Increased PGE2 production in A549 cells
Outline: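 A549 cells grown 24 h in F12K with 10% FBS, then switched to serum-free medium with or without IL-1β and compound (0.1% DMSO final). After 24 h at 37 °C, 5% CO2, supernatant PGE2 quantified by immunoassay.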

human 15-PGDH = target: T1, human 15-PGDH (Homo sapiens, UniProt P15428); test: Evaluation of 15-PGDH inhibitory activity (fluorescence enzyme assay, NAD+/PGE2); format: biochemical; conditions: human 15-PGDH enzyme, fluorescence Vmax
T1 construct: purchased R&D System 5660-DH
T1 sequence (P15428 1-266): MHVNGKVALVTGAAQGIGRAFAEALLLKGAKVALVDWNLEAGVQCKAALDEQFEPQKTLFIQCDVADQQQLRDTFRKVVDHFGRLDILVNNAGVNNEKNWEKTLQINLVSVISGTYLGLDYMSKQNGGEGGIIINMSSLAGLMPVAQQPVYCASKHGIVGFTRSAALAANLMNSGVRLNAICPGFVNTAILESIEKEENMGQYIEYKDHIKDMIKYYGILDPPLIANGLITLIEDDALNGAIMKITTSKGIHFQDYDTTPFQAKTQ
Method: 15-PGDH inhibition activity of Example compounds was measured as follows. 6.7 ng of human 15-PGDH (R&D System# 5660-DH) enzyme (10 µL) was added to a black 96 well plate, 60 µL of buffer (50 mM Tris-HCl, pH 7.5, 0.01% Tween 20) was added, and 10 µL of 200 µM β-Nicotinamide adenine dinucleotide sodium salt (Sigma, Cat# N0632-5G) was added. 10 µL of (10x) compound solution in DMSO was added and reacted for 10 minutes at room temperature.

| SMILES | pIC50 (human 15-PGDH) | fold induction at 1 µM (A549 cells) |
| --- | --- | --- |
| COCCC(=O)Nc1cncc(-c2cccc3c(C(=O)N4CCCCC4)cnn23)c1 [Example 197] | ≥ 7.00 | > 1.5 |
| Cn1ccc(NC(=O)c2cncc(-c3cccc4c(C(=O)N5CCCCC5)cnn34)c2)n1 [Example 193, N-(1-methyl-1H-pyrazol-3-yl)-5-(3-(piperidine-1-carbonyl)pyrazolo[1,5-a]pyridin-7-yl)nicotinamide] | ≥ 7.00 | > 1.5 |
| COCCC(=O)Nc1cccc(-c2cccc3c(C(=O)N4CCCCC4)cnn23)c1 [Example 91, 3-methoxy-N-(3-(3-(piperidine-1-carbonyl)pyrazolo[1,5-a]pyridin-7-yl)phenyl)propanamide] | ≥ 7.00 | > 1.5 |
| CN(C)C1CN(c2cc(-c3cccc4c(C(=O)N5CCCCC5)cnn34)cc(-c3cncc(F)c3)n2)C1 [Example 375, (7-(6-(3-(dimethylamino)azetidin-1-yl)-5'-fluoro-[2,3'-bipyridin]-4-yl)pyrazolo[1,5-a]pyridin-3-yl)(piperidin-1-yl)methanone] | ≥ 7.00 | > 1.5 |
| O=C(Nc1cccnc1)c1cccc(-c2cccc3c(C(=O)N4CCCCC4)cnn23)c1 [Example 37, 3-(3-(piperidine-1-carbonyl)pyrazolo[1,5-a]pyridin-7-yl)-N-(pyridin-3-yl)benzamide] | ≥ 7.00 | > 1.5 |
| Cn1cnc2cc(-c3cccc4c(C(=O)N5CCCCC5)cnn34)ccc2c1=O [Example 251, 3-methyl-7-(3-(piperidine-1-carbonyl)pyrazolo[1,5-a]pyridin-7-yl)quinazolin-4(3H)-one] | ≥ 7.00 | > 1.5 |
| CN1CCN(c2ccc(-c3cccc4c(C(=O)N5CCCCC5)cnn34)cn2)CC1 [Example 111, (7-(6-(4-methylpiperazin-1-yl)pyridin-3-yl)pyrazolo[1,5-a]pyridin-3-yl)(piperidin-1-yl)methanone] | ≥ 7.00 | > 1.5 |
| N#Cc1ccc(-c2cccc3c(C(=O)N4CCCCC4)cnn23)cc1F [Example 22, 2-fluoro-4-(3-(piperidine-1-carbonyl)pyrazolo[1,5-a]pyridin-7-yl)benzonitrile] | ≥ 7.00 | > 1.5 |
| C[C@H]1CCCN(C(=O)c2cnn3c(-c4ccc5c(c4)C(=O)NC5)cccc23)C1 [Example 386, (S)-6-(3-(3-methylpiperidine-1-carbonyl)pyrazolo[1,5-a]pyridin-7-yl)isoindolin-1-one] | ≥ 7.00 | > 1.5 |
| CC1CCCN(C(=O)c2cnn3c(-c4ccc(N5CCOC5=O)nc4)cccc23)C1 (centres unmarked) [Example 353, 3-(5-(3-(3-methylpiperidine-1-carbonyl)pyrazolo[1,5-a]pyridin-7-yl)pyridin-2-yl)oxazolidin-2-one] | ≥ 7.00 | > 1.5 |

Further lines, with some results ahead:

| pIC50 (human 15-PGDH) | SMILES | fold induction at 1 µM (A549 cells) |
| --- | --- | --- |
| ≥ 7.00 | Cc1nc(-c2cncc(-c3cccc4c(C(=O)N5CCCCC5)cnn34)c2)no1 [Example 319, (7-(5-(5-methyl-1,2,4-oxadiazol-3-yl)pyridin-3-yl)pyrazolo[1,5-a]pyridin-3-yl)(piperidin-1-yl)methanone] | > 1.5 |
| ≥ 7.00 | Cc1nc(-c2cc(N)cc(-c3cccc4c(C(=O)N5CCCCC5)cnn34)c2)no1 [Example 343, (7-(3-amino-5-(5-methyl-1,2,4-oxadiazol-3-yl)phenyl)pyrazolo[1,5-a]pyridin-3-yl)(piperidin-1-yl)methanone] | > 1.5 |
| ≥ 7.00 | O=C1NCc2ccc(-c3cccc4c(C(=O)N5CCC(F)CC5)cnn34)cc21 [Example 155, 6-(3-(4-fluoropiperidine-1-carbonyl)pyrazolo[1,5-a]pyridin-7-yl)isoindolin-1-one] | > 1.5 |
| ≥ 7.00 | O=C(c1cnn2c(-c3ccc(N4CC5(CCC5)C4)nc3)cccc12)N1CCCCC1 [Example 220, (7-(6-(2-azaspiro[3.3]heptan-2-yl)pyridin-3-yl)pyrazolo[1,5-a]pyridin-3-yl)(piperidin-1-yl)methanone] | > 1.5 |
| ≥ 7.00 | CN1CCc2ccc(-c3cccc4c(C(=O)N5CCCCC5)cnn34)cc2C1=O [Example 132, 2-methyl-7-(3-(piperidine-1-carbonyl)pyrazolo[1,5-a]pyridin-7-yl)-3,4-dihydroisoquinolin-1(2H)-one] | > 1.5 |
| ≥ 7.00 | N#Cc1cc(-c2cccc3c(C(=O)N4CCCCC4)cnn23)ccc1F [Example 254, 2-fluoro-5-[3-(piperidine-1-carbonyl)pyrazolo[1,5-a]pyridin-7-yl]benzonitrile] | > 1.5 |
